These results are taken from publication PMC7934925, “A GRM7 mutation associated with developmental delay reduces mGlu7 expression and produces neurological phenotypes” (JCI Insight, 2021).

The structures appear in SMILES notation.

One assay has as its target T1, mGlu7 (HA-mGlu7-WT) (Homo sapiens, UniProt Q14831).
T1 construct: gene GRM7; full-length human mGlu7a isoform (NM_000844.4), HA-tagged, stably expressed in HEK/GIRK cells
Nature of the assay: thallium flux assay (GIRK) in HEK cells stably expressing the receptor, agonist concentration-response. Format: cell-based.

A further assay has as its target T2, mGlu7 (HA-mGlu7-I154T) (Homo sapiens, UniProt Q14831, I154T).
T2 construct: gene GRM7; full-length human mGlu7a isoform, HA-tagged, I154T, stably expressed in HEK/GIRK cells
The description is as above. Format: cell-based.

T1 sequence (Q14831 35-915): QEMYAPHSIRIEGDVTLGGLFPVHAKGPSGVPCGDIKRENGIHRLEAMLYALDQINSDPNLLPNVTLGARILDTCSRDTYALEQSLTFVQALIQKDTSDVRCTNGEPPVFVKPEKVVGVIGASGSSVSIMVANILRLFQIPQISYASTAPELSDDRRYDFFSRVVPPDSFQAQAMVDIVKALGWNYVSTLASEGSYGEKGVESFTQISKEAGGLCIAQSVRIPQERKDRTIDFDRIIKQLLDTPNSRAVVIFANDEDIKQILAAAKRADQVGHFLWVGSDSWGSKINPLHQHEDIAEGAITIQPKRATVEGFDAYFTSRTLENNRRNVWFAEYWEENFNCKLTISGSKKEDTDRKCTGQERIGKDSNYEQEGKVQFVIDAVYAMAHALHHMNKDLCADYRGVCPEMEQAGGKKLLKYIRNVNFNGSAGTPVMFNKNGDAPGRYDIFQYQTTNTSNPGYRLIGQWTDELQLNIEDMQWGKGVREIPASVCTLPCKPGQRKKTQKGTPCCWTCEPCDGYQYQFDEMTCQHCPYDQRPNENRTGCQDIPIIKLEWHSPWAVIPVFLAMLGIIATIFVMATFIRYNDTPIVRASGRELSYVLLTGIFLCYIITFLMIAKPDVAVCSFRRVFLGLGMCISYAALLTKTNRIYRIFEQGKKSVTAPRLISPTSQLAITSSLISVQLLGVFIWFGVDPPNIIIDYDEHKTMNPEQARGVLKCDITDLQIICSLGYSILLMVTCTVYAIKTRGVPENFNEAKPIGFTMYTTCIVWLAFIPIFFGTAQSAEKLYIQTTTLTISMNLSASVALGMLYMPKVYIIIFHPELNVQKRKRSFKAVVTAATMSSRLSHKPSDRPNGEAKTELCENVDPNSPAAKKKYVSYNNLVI
T2 sequence (Q14831 35-915 I154T): as the sequence (Q14831 35-915) above, with I120T counted along it

With `N[C@@H](CCP(=O)(O)O)C(=O)O` [L-AP4], the results for the concentration giving a half-maximal response (EC50) on mGlu7 (HA-mGlu7-WT) and at mGlu7 (HA-mGlu7-I154T) were 176 µM and 540 µM, respectively.
